The data set is classed as in vivo, human. The following applies: flurbiprofen 100 mg oral, n=12.
Where [1] appears, read: arithmetic mean, Fluconazole/ placebo.
Where [2] appears, read: arithmetic mean, Pom extract/ placebo.
Setting [3] is: arithmetic mean, Pom juice/ placebo.
Setting [4] is: geometric mean, Fluconazole/ placebo.
Where [5] appears, read: geometric mean, Pom extract/ placebo.
Where [6] appears, read: geometric mean, Pom juice/ placebo.

The source of these data is paper PMC6170196 (Clinical pharmacology and therapeutics, 2012).

Structures are written as SMILES. Read-outs that look alike come from different tables or passages of the source. Marks after values point to notes of the source that are not given here.

Turning to `CC(C(=O)O)c1ccc(-c2ccccc2)c(F)c1` (stereo not drawn) [FLURBIPROFEN, Flurbiprofen], the Cmax ratio is reported as 1.57 ^* under setting [1]; 1.08 under setting [2]; 1.09 under setting [3]; 1.47 under setting [4]; 1.03 under setting [5]; 1.03 under setting [6]. For the same compound, the “Total AUC ratio” value was 2.04 ^* under setting [1]; 1.09 under setting [2]; 1.08 under setting [3]; 1.97 under setting [4]; 1.06 under setting [5]; 1.05 under setting [6].
